Laboratory results taken from ChEMBL document CHEMBL1287771, “Novel hybrids of 15-membered 8a- and 9a-azahomoerythromycin A ketolides and quinolones as potent antibacterials” (2010).
Values after ≈ are worked out from the molar mass of the structure shown.

Legend:
Format in all cases: functional
[1] = tested on: Streptococcus pyogenes; test: Antibacterial activity against inducible macrolide-lincosamide-streptogramin B-resistant Streptococcus pyogenes B0543 by agar microdilution method
[2] = tested on: Streptococcus pyogenes; test: Antibacterial activity against erythromycin A-susceptible Streptococcus pyogenes B0542 by agar microdilution method
[3] = tested on: Streptococcus pneumoniae; test: Antibacterial activity against efflux-resistant Streptococcus pneumoniae B0326 by agar microdilution method
[4] = tested on: Streptococcus pneumoniae; test: Antibacterial activity against constitutive macrolide-lincosamide-streptogramin B-resistant Streptococcus pneumoniae B0627 by agar microdilution method
[5] = tested on: Streptococcus pneumoniae; test: Antibacterial activity against erythromycin A-susceptible Streptococcus pneumoniae B0541 by agar microdilution method
[6] = tested on: Staphylococcus aureus; test: Antibacterial activity against efflux-resistant Staphylococcus aureus B0331 by agar microdilution method
[7] = tested on: Staphylococcus aureus; test: Antibacterial activity against constitutive macrolide-lincosamide-streptogramin B-resistant Staphylococcus aureus B0330 by agar microdilution method
[8] = tested on: Staphylococcus aureus; test: Antibacterial activity against inducible macrolide-lincosamide-streptogramin B-resistant Staphylococcus aureus B0538 by agar microdilution method
[9] = tested on: Staphylococcus aureus; test: Antibacterial activity against erythromycin A-susceptible Staphylococcus aureus B0329 by agar microdilution method
[10] = tested on: Streptococcus pyogenes; test: Antibacterial activity against constitutive macrolide-lincosamide-streptogramin B-resistant Streptococcus pyogenes B0544 by agar microdilution method
[11] = tested on: Streptococcus pyogenes; test: Antibacterial activity against efflux-resistant Streptococcus pyogenes B0545 by agar microdilution method
[12] = tested on: Moraxella catarrhalis; test: Antibacterial activity against Moraxella catarrhalis B0324 by agar microdilution method
[13] = tested on: Haemophilus influenzae; test: Antibacterial activity against Haemophilus influenzae B0529 by agar microdilution method

| Structure (SMILES) | MIC [1] [µg/mL] | MIC [2] [µg/mL] | MIC [3] [µg/mL] | MIC [4] [µg/mL] | MIC [5] [µg/mL] | MIC [6] [µg/mL] | MIC [7] [µg/mL] | MIC [8] [µg/mL] | MIC [9] [µg/mL] | MIC [10] [µg/mL] | MIC [11] [µg/mL] | MIC [12] [µg/mL] | MIC [13] [µg/mL] |
| --- | --- | --- | --- | --- | --- | --- | --- | --- | --- | --- | --- | --- | --- |
| CC[C@H]1OC(=O)[C@H](C)[C@@H](O[C@@H]2C[C@@](C)(OC)[C@@H](O)[C@H](C)O2)[C@H](C)[C@@H](O[C@@H]2O[C@H](C)C[C@H](N(C)C)[C@H]2O)[C@](C)(OC/C=C/NCCc2ccc([N+](=O)[O-])cc2)C[C@@H](C)C(=O)N[C@H](C)[C@H](O)[C@@]1(C)O | 4 (≈ 4.2 µM) | 0.125 (≈ 0.131 µM) | 16 (≈ 16.8 µM) | > 64 | > 64 | 32 (≈ 33.6 µM) | > 64 | > 64 | 32 (≈ 33.6 µM) | > 64 | 16 (≈ 16.8 µM) | 8 (≈ 8.39 µM) | 64 (≈ 67.1 µM) |
| CC[C@H]1OC(=O)[C@H](C)C(=O)[C@H](C)[C@@H](O[C@@H]2O[C@H](C)C[C@H](N(C)C)[C@H]2O)[C@](C)(OCC(O)CNCCc2cccnc2)C[C@@H](C)NC(=O)[C@H](C)[C@H](O)[C@@]1(C)O (some centres undefined) | 4 (≈ 5.22 µM) | 0.25 (≈ 0.326 µM) | 8 (≈ 10.4 µM) | 2 (≈ 2.61 µM) | 0.5 (≈ 0.652 µM) | 4 (≈ 5.22 µM) | > 64 | 8 (≈ 10.4 µM) | 4 (≈ 5.22 µM) | 32 (≈ 41.7 µM) | 2 (≈ 2.61 µM) | 1 (≈ 1.3 µM) | 8 (≈ 10.4 µM) |
| CC[C@H]1OC(=O)[C@H](C)C(=O)[C@H](C)[C@@H](O[C@@H]2O[C@H](C)C[C@H](N(C)C)[C@H]2O)[C@](C)(OCC(O)CN[C@H](C)Cc2ccccc2)C[C@@H](C)NC(=O)[C@H](C)[C@H](O)[C@@]1(C)O (some centres undefined) | 0.5 (≈ 0.641 µM) | ≤ 0.125 | 1 (≈ 1.28 µM) | 2 (≈ 2.56 µM) | ≤ 0.125 | 2 (≈ 2.56 µM) | > 64 | 2 (≈ 2.56 µM) | 0.5 (≈ 0.641 µM) | 4 (≈ 5.13 µM) | 0.5 (≈ 0.641 µM) | 0.25 (≈ 0.321 µM) | 1 (≈ 1.28 µM) |
| CC[C@H]1OC(=O)[C@H](C)C(=O)[C@H](C)[C@@H](O[C@H]2C[C@H](O)[C@@H](N(C)C)[C@@H](C)O2)[C@](C)(OC/C=C/c2cnc3ccccc3c2)C[C@@H](C)/C(=N\OC(C)=O)[C@H](C)[C@@H](O)[C@]1(C)O | ≤ 0.125 | 0.125 (≈ 0.157 µM) | ≤ 0.125 | 8 (≈ 10 µM) | ≤ 0.125 | 1 (≈ 1.25 µM) | 64 (≈ 80.2 µM) | 0.5 (≈ 0.627 µM) | 0.25 (≈ 0.313 µM) | 32 (≈ 40.1 µM) | 0.5 (≈ 0.627 µM) | 8 (≈ 10 µM) | 32 (≈ 40.1 µM) |
| C=CCO[C@@]1(C)[C@@H](CC)OC(=O)[C@H](C)C(=O)[C@H](C)[C@@H](O[C@@H]2O[C@H](C)C[C@H](N(C)C)[C@H]2O)[C@](C)(OCC=C)C[C@@H](C)C(=O)N[C@H](C)[C@@H]1O [3-O-DESCLADINOSYL-6,12-DI-O-ALLYL-3-OXO-9A-AZA-9A-HOMOERYTHROMYCIN A] | 32 (≈ 47.8 µM) | 2 (≈ 2.99 µM) | 4 (≈ 5.98 µM) | > 64 | 2 (≈ 2.99 µM) | 16 (≈ 23.9 µM) | > 64 | 8 (≈ 12 µM) | 8 (≈ 12 µM) | > 64 | 8 (≈ 12 µM) | ≤ 0.125 | 16 (≈ 23.9 µM) |
| CC[C@H]1OC(=O)[C@H](C)C(=O)[C@H](C)[C@@H](O[C@@H]2O[C@H](C)C[C@H](N(C)C)[C@H]2O)[C@](C)(OCC(O)CNCCNc2cc3c(=O)c(C(=O)O)cn(C4CC4)c3cc2Cl)C[C@@H](C)NC(=O)[C@H](C)[C@H](O)[C@@]1(C)O (some centres undefined) | 4 (≈ 4.14 µM) | ≤ 0.125 | 1 (≈ 1.03 µM) | 4 (≈ 4.14 µM) | ≤ 0.125 | 0.5 (≈ 0.517 µM) | > 64 | 2 (≈ 2.07 µM) | 1 (≈ 1.03 µM) | 32 (≈ 33.1 µM) | 4 (≈ 4.14 µM) | 4 (≈ 4.14 µM) | 8 (≈ 8.28 µM) |
| O=C(O)c1cn(C2CC2)c2cc(N3CCNCC3)c(F)cc2c1=O [CIPROFLOXACIN] | 0.25 (≈ 0.754 µM) | 2 (≈ 6.04 µM) | 0.25 (≈ 0.754 µM) | 0.25 (≈ 0.754 µM) | ≤ 0.125 | ≤ 0.125 | ≤ 0.125 | – | – | 0.5 (≈ 1.51 µM) | ≤ 0.125 | 0.125 (≈ 0.377 µM) | ≤ 0.125 |
